Assay results published in article PMC10611828 (European Journal of Nuclear Medicine and Molecular Imaging, 2023).
Like-named read-outs stand apart in the source and are kept apart here.

Assays:
[1] = Stability in human serum at 37 °C (radio-HPLC); assay type: in vitro ADME; details: read-out: intact radiolabeled ligand (RCP)
Protocol: (§1) The ^177Lu-labeled peptides were incubated in 300-μL phosphate buffered saline (PBS; Gibco, ThermoFisher, The Netherlands) at 37 °C, and their stability was verified after 1, 4, 24, 48, and 72 h by radio-HPLC (Supplementary Fig. 2). The stability in serum was determined by incubating the radiolabeled compounds into 300 μL of mouse serum (Invitrogen, USA) or human serum (Sigma Aldrich, USA) at 37 °C (Supplementary Fig. 3, 4). At each time point post-incubation, 35 μL of the mixture was added to an Eppendorf tube, and the proteins were precipitated by adding an equal volume of acetonitrile. The tubes were centrifuged at 16,000 rpm, 4 °C for 20 min, and the stability was monitored by radio-HPLC, expressed as the RCP at the different time points.

[2] = In vivo biodistribution and clearance in PC-3 tumor-bearing mice; details: male, NMRI-Foxn1 nu/nu, mouse, iv, total radioactivity, i.v.; for tissue uptake at 1 h: 1 h p.i.; for tissue uptake at 4 h: 4 h p.i.; for tissue uptake at 24 h: 24 h p.i.; for tissue uptake at 48 h: 48 h p.i.; for tissue uptake at 72 h: 72 h p.i.
Protocol: All animal experiments were approved by the Animal Welfare Committee of the Erasmus MC, and all experiments were conducted in accordance to institutional guidelines.
At 1, 4, 24, 48, and 72 h post-injection (p.i.), animals were sedated using 2.5% isoflurane in oxygen, and blood was collected via the orbital vein, after which the animals were euthanized using cervical dislocation. Subsequently, the following organs were collected; the tail, tumor, spleen, liver, pancreas, small intestine, colon, coecum, kidneys, lung, and muscle. […] The collected tumor and organs were weighed, and the radioactivity was measured in the gamma counter. The biodistribution data are expressed as percentage injected dose per gram of tissue (% ID/g). Animal numbers per group are indicated in Supplementary Table 1 and 2.
Statistical analysis was performed using Graphpad Prism version 9.0.0. Outliers were identified using the ROUT method with a Q value of 1%. IC50 curves were determined using non-linear regression.

[3] = Stability in mouse serum at 37 °C (radio-HPLC); assay type: in vitro ADME; details: read-out: intact radiolabeled ligand (RCP)
Protocol: as §1

[4] = PC-3 tumor, read-out: % uptake PC-3 tumor
[5] = gastrointestinal tract, read-out: % uptake gastrointestinal tract
[6] = kidney, read-out: % uptake kidney
[7] = liver, read-out: % uptake liver
[8] = muscle, read-out: % uptake muscle
[9] = pancreas, read-out: % uptake pancreas
[10] = prostate, read-out: % uptake prostate
[11] = spleen, read-out: % uptake spleen

CC(C)C[C@H](NC(=O)C[C@H](O)[C@H](CC(C)C)NC(=O)[C@H](Cc1c[nH]cn1)NC(=O)CNC(=O)[C@@H](NC(=O)[C@H](C)NC(=O)[C@H](Cc1c[nH]c2ccccc12)NC(=O)[C@H](CCC(N)=O)NC(=O)[C@@H](Cc1ccccc1)NC(=O)CN1CCC(NC(=O)CN2CCN(CC(=O)O)CCN(CC(=O)O)CCN(CC(=O)O)CC2)CC1)C(C)C)C(N)=O [[^177Lu]Lu-RM2, metal not drawn]
remaining at 1 h ([1]; 1 h): 96.7 ± 0.7%
remaining at 4 h ([1]; 4 h): 95.5 ± 1.1%
remaining at 24 h ([1]; 24 h): 94.9 ± 1.5%
remaining at 48 h ([1]; 48 h): 92.3 ± 1.9%
remaining at 72 h ([1]; 72 h): 88.4 ± 0.6%
tissue uptake at 1 h [2, 4]: 9.27 ± 1.81 %ID/g
tissue uptake at 4 h [2, 4]: 9.14 ± 0.94 %ID/g
tissue uptake at 24 h [2, 4]: 7.32 %ID/g
tissue uptake at 48 h [2, 4]: 5.47 %ID/g
tissue uptake at 72 h [2, 4]: 2.97 %ID/g
tissue uptake at 1 h ([2]; blood, read-out: % uptake blood): 0.3 %ID/g
tissue uptake at 1 h [2, 5]: 1.75 %ID/g
tissue uptake at 4 h [2, 5]: 0.56 %ID/g
tissue uptake at 24 h [2, 5]: 0.05 %ID/g
tissue uptake at 48 h [2, 5]: 0.03 %ID/g
tissue uptake at 72 h [2, 5]: 0.01 %ID/g
tissue uptake at 1 h [2, 6]: 3 %ID/g
tissue uptake at 4 h [2, 6]: 1.69 %ID/g
tissue uptake at 24 h [2, 6]: 0.63 %ID/g
tissue uptake at 48 h [2, 6]: 0.26 %ID/g
tissue uptake at 72 h [2, 6]: 0.12 %ID/g
tissue uptake at 1 h [2, 7]: 0.2 %ID/g
tissue uptake at 4 h [2, 7]: 0.09 %ID/g
tissue uptake at 24 h [2, 7]: 0.04 %ID/g
tissue uptake at 48 h [2, 7]: 0.03 %ID/g
tissue uptake at 72 h [2, 7]: 0.02 %ID/g
tissue uptake at 1 h ([2]; lung, read-out: % uptake lungs): 0.3 %ID/g
tissue uptake at 4 h ([2]; lung, read-out: % uptake lungs): 0.04 %ID/g
tissue uptake at 24 h ([2]; lung, read-out: % uptake lungs): 0.02 %ID/g
tissue uptake at 48 h ([2]; lung, read-out: % uptake lungs): 0.01 %ID/g
tissue uptake at 72 h ([2]; lung, read-out: % uptake lungs): 0.01 %ID/g
tissue uptake at 1 h [2, 8]: 0.06 %ID/g
tissue uptake at 4 h [2, 8]: 0.01 %ID/g
tissue uptake at 24 h [2, 8]: 0.01 %ID/g
tissue uptake at 1 h [2, 9]: 14.4 ± 2.56 %ID/g
tissue uptake at 4 h [2, 9]: 2.07 ± 0.3 %ID/g
tissue uptake at 24 h [2, 9]: 0.25 %ID/g
tissue uptake at 48 h [2, 9]: 0.14 %ID/g
tissue uptake at 72 h [2, 9]: 0.05 %ID/g
tissue uptake at 1 h [2, 10]: 1.08 %ID/g
tissue uptake at 4 h [2, 10]: 0.03 %ID/g
tissue uptake at 24 h [2, 10]: 0.03 %ID/g
tissue uptake at 48 h [2, 10]: 0.02 %ID/g
tissue uptake at 72 h [2, 10]: 0.01 %ID/g
tissue uptake at 1 h [2, 11]: 0.19 %ID/g
tissue uptake at 4 h [2, 11]: 0.06 %ID/g
tissue uptake at 24 h [2, 11]: 0.04 %ID/g
tissue uptake at 48 h [2, 11]: 0.03 %ID/g
tissue uptake at 72 h [2, 11]: 0.02 %ID/g
remaining at 1 h ([3]; 1 h): 90.9 ± 0.5%
remaining at 24 h ([3]; 24 h): 29.6 ± 1.2%
remaining at 48 h ([3]; 48 h): 17.1 ± 3.5%
remaining at 72 h ([3]; 72 h): 5.3 ± 0.9%
